{"source": "paper PMC6010070", "about": "“Antinociceptive potency of a fluorinated cyclopeptide Dmt-c[D-Lys-Phe-p-CF3-Phe-Asp]NH2” (Journal of Enzyme Inhibition and Medicinal Chemistry, 2018)", "key": {"Male balb/c mice": {"tested_on": "Male balb/c mice", "assay": "Mustard oil induced abdominal pain in mice with acute TNBS-induced colitis", "type": "in vivo", "conditions": "mustard oil i.c., 1 mg/kg i.p., counted for 20 min, control group 29.28 ± 2.52", "protocol": "Male balb/c mice (Animal Facility of Nofer Institute of Occupational Medicine, Lodz, Poland) weighing 22–25 g were used to determine the anti-inflammatory and anti-nociceptive activity of cyclopeptides after i.p. administration. All procedures and protocols used in this study were approved by the Local Ethical Committee for Animal Research (protocol number: 20/ŁB708/2014, 26 May 2014). The study was carried out in accordance with the recommendations described in the Guide for the Care and Use of Laboratory Animals of the Medical University of Lodz, Poland. All experimental procedures were performed in accordance with the current guidelines for the care of laboratory animals (including the use of the 3Rs procedures) and in accordance with the ARRIVE guidelines.\nTo assess the anti-nociceptive effect of F-81 in mice with acute colitis, intestinal inflammation was induced by TNBS instillation three days prior to the experiment. Abdominal pain was induced in inflamed mice by the i.c. injection of 1% mustard oil (MO, allyl isothiocyanate) in 70% EtOH in saline. Mice were separated into clear plastic boxes (20 × 20 × 15 cm) and allowed a 5 min recovery after MO administration. Spontaneous behaviours (licking and stretching the abdomen, squashing of lower abdomen against the floor, and abdominal retraction) were observed and counted for 20 min."}, "kappa-opioid receptor": {"tested_on": "kappa-opioid receptor", "design": "method as in PMID 26005537, PMID 25047937", "conditions": "cited from earlier work"}, "Kinetic solubility assay": {"assay": "Kinetic solubility assay", "type": "physicochemical", "conditions": "PBS buffer, pH 7.4", "protocol": "Kinetic solubility assay was performed using Multiscreen HTS Vacuum Manifold (Merck Millipore, Warsaw, Poland). Compounds for this test were prepared as 10 mM stock solutions in DMSO and diluted in a standard PBS buffer (pH = 7.4), to the final concentrations of 0.5 mM. The solutions were applied into a 96-well filter plate and incubated for 90 min at room temperature, while shaking at 40 g and then filtrated. The concentration of each compound was determined on the basis of the prepared calibration curve using the UV–VIS spectrophotometric method. According to the absorption spectra of the compounds the wavelength used for the measurements was 280 nm for both, C-36 and F-81."}, "[1]": {"protocol": "Parallel Artificial Membrane Permeability Assay (PAMPA) was performed using Multiscreen Filter Plate and Multiscreen Transport Receiver Plate (Merck Millipore, Warsaw, Poland). Tested, as well as reference compounds, were dissolved in 0.1 M PBS buffer containing 20% of ethanol, to the final concentration of 200 µM. A 300 µl aliquots of 0.1 M PBS solution (pH = 7.4) was dispensed into the wells of the […]. Then 1% n-dodecane solution of the brain polar lipid extract (Avanti Polar Lipids; Sigma Aldrich, Poznan, Poland) was prepared to investigate the blood–brain barrier (BBB) permeability. Aliquots of the obtained lipid solutions (5 µl) were dispensed on the membranes of wells of the donor plate and left to dry. […] A complete system, consisting of the receiver plate with inserted donor plate, was incubated at room temperature for 4 h, shaking at 40 g, to guarantee good solvent mixing.\nThe ability of the tested compounds to permeate the artificial membranes was classified according to the literature[33] as:\nArtificial membrane permeability was assessed in the PAMPA assay and the permeability coefficient (Pe) was calculated from the following equation: Pe=C×-ln1-×Ca/Cr where C=Vd ×Va /(Vd+Va)×p×t\nMembrane retention was analysed using mass balance between a compound left in the donor and acceptor compartments and calculated using the following equation: MB=Ca×Va+(Cd×Vd)/Cinitial×Vd where"}, "Male CD-1 mice": {"tested_on": "Male CD-1 mice", "assay": "Hot-plate test after i.c.v. administration", "type": "in vivo", "text": "Male CD-1 mice (Harlan, Italy) weighing 25–30 g were used to determine the anti-nociceptive activity of the cyclopeptides in the hot-plate test after i.c.v. injection. Animal studies and research protocols were approved by the Service for Biotechnology and Animal Welfare of the Istituto Superiore di Sanità and authorized by the Italian Ministry of Health, according to Legislative Decree 26/14 (protocol number: 198/2013-B, 14 August 2013), which implemented the European Directive 2010/63/EEC on laboratory animal protection. Animal welfare was routinely checked by veterinarians from the Service for Biotechnology and Animal Welfare.\nThe hot-plate test was performed as described earlier. The intracerebroventricular (i.c.v.) injections were performed in a volume of 10 µl/animal, in the left brain ventricle of manually immobilized mice with a Hamilton microsyringe (50 µl) connected to a needle (diameter 0.5 mm). Peptides were also administrated in mice intravenously (i.v.) in a volume of 1 ml/kg. All compounds used for i.c.v. and i.v. administration were dissolved in saline. A transparent plastic cylinder (14 cm diameter, 31 cm height) was used to confine the mouse on the heated (55 ± 0.5 °C) surface of the plate. The animals were placed on the hot plate 5 min after the i.c.v. injection of saline (control) or peptides and the latencies to paw licking, rearing and jumping were measured at 5, 10, 20, 30, 45, 60, 90, and 120 min after administration of a peptide. A cut-off time of 240 s was used to avoid tissue injury. The percentage of the maximal possible effect (%MPE) was calculated as: %MPE = (t1 − t0)/(t2 − t0) × 100, where t0: control latency, t1: test latency, and t2: cut-off time. The median antinociceptive dose (ED50) was calculated according to the method of Litchfield and Wilcox[36]."}}, "note": "Read-outs that look alike come from different tables or passages of the source. Bridge positions count the residues as written; N and C are the ends. Square brackets hold non-standard residues; d marks the D form. Peptide text beside a SMILES is read from it. Phe(4-CF3) = N[C@@H](Cc1ccc(C(F)(F)F)cc1)C(=O)O; Dmt = Cc1cc(O)cc(C)c1C[C@H](N)C(=O)O", "data": [{"smiles": "Cc1cc(O)cc(C)c1C[C@H](N)C(=O)N[C@@H]1CCCCNC(=O)C[C@@H](C(N)=O)NC(=O)[C@H](Cc2ccc(C(F)(F)F)cc2)NC(=O)[C@H](Cc2ccccc2)NC1=O", "note": "[Peptide F-81, Dmt-c[D-Lys-Phe-p-CF3-Phe-Asp]NH2] (H-[Dmt][dK]F[Phe(4-CF3)]D-NH2; lactam 2-5 (inferred))", "values": [{"measurement": "Number of spontaneous pain behaviours", "setting": "Male balb/c mice", "result": "6.36 ± 1.98"}, {"measurement": "kappa-affinity", "setting": "kappa-opioid receptor", "result": "significant kappa-affinity"}, {"measurement": "solubility at 90 min", "setting": "Kinetic solubility assay; read-out: Solubility Mean", "result": 345, "unit": "µM"}, {"measurement": "solubility at 90 min", "setting": "Kinetic solubility assay; read-out: Solubility Mean (mg/ml)", "result": 0.27, "unit": "mg/mL"}, {"measurement": "BBB permeability Pe ± SD", "setting": "[1]; PAMPA, brain polar lipid extract, 200 µM, 4 h, room temperature, pH 7.4", "result": "≤0.58"}, {"measurement": "Classification (BBB permeation)", "setting": "[1]; PAMPA-BBB, classified by Pe", "result": "Low permeation (Pe < 2.0 – low permeation)"}, {"measurement": "Mean (%) Mass balance ± SD", "setting": "[1]; PAMPA-BBB, membrane retention", "result": "95.75 ± 1.43", "unit": "%"}, {"measurement": "Anti-nociceptive effect with co-administered naltrindole (delta antagonist)", "setting": "Male CD-1 mice; F-81 10 ng/animal i.c.v., NTL 1 µg/animal", "result": "did not modify"}, {"measurement": "Anti-nociceptive effect with co-administered norbinaltorphimine (kappa antagonist)", "setting": "Male CD-1 mice; F-81 10 ng/animal i.c.v., nor-BNI 5 µg/animal i.c.v.", "result": "did not modify"}, {"measurement": "Anti-nociceptive effect with co-administered β-funaltrexamine (mu antagonist)", "setting": "Male CD-1 mice; F-81 10 ng/animal i.c.v., β-FNA 1 µg/animal", "result": "blocked"}, {"measurement": "Anti-nociceptive potency relative to C-36", "setting": "Male CD-1 mice; hot-plate test, i.c.v., from the ED50 values", "result": "approximately threefold"}, {"measurement": "ED50 (jumping response)", "setting": "Male CD-1 mice; hot-plate test, mice, i.c.v.", "result": 17.27, "unit": "ng"}]}]}
